Measurements taken from patent US6383733B1, “Methods of screening for pharmacologically active compounds for the treatment of tumour diseases” (Boehringer Ingelheim International GmbH, priority 1996, dated 2002).

Assays:
EpRas cells [1] = test: Semi-quantitative PCR for TGFβ1-mRNA in cells grown in collagen gels; type: cell-based, mouse; conditions: EpRas clones, 5 ng/ml TGFβ1, five days in collagen gels
Experimental: Total RNA from cells, grown on plastic, in collagen gels or from tumours, was isolated and processed for the semi-quantitative PCR. A TGFβ1-specific fragment was amplified by means of RT-PCR under semi-quantitative conditions, using -actin primers as the internal control, as described by Leonard et al., 1993. For this the DNA was denatured at 94° C. for 1 min, the primers were annealed at 65° C. for 1 min, and the polymerase reactions were continued at 72° C. for 1 min. The amplification was continued for 20 and 30 cycles. The TGFβ1-specific primers TGGACCGCAA CAACGCCATC TATCCAGAAAA CC (forward) and TGGAGCTGAAGCAATAGTTGGTATCCAGGGCT (reverse) (Clontech Inc.) were used. The results of the PCR were quantitatively evaluated on an Image Quant Phospho-Imager. The values were standardised on the control product (-actin) and subsequently correlated with the value from control-3T3-fibroblast.
Finally the amounts of TGFβ1-mRNA expressed in the cells and the TGFβ1 -protein released into the culture medium were determined. Three different EpRas clones as well as the parental EpH4 clone were grown for five days in collagen gels. […] At the protein level essentially the same results were obtained when serum-free culture supernatants were analysed by ELISA and Western blot (FIG. 7B).

EpRas cells [2] = test: Chicken embryo heart invasion assay with EpRas cells; type: cell-based, mouse; conditions: 7 days co-cultivation with heart fragments
Experimental: This assay was carried out as described by Behrens et al., 1993. In order to be able to distinguish invasive donor cells clearly from chicken heart cells, the test cells were charged with a vital fluorescent dye before examination. For this the cells were incubated for 1 hour in a glucose-containing Hanks saline solution containing […] 5,6-carboxy-2′,7′-dichlorofluorescein diacetate-succinimidyl ester (Molecular Probes) and 0.2×10^−6 M Pluronic F127. In this way the fluorescent dye is covalently bound to intracellular proteins without affecting the viability or behaviour of the cells, determined by various differentiation and proliferation assays. The labelled cells were grown for 24 hours at high density, scraped off the plastic dish and brought into contact with pre-cultivated heart fragments of 9 day old chicken embryos on the surface of a soft agar layer. After 7 days' cultivation the fragments with the adhering cells were collected, flash-frozen in liquid nitrogen, frozen sections were prepared, fixed in methanol/acetone and the fluorescent cells were determined by epifluorescence microscopy (Axiophot, Zeiss).

[3] = tested on: PAI-1 promoter-reporter gene construct in CT26 cells; test: Transient PAI-1 promoter-reporter gene (3TP-lux) luciferase assay; type: cell-based, mouse; conditions: TGFβ added for 24 hours
Experimental: A PAI-1 promoter-reporter construct (reporter gene was luciferase; 3TP-lux, Wrana et al., 1992) was transfected by lipofectamine transfection (Gibco) according to the manufacturer's instructions into CT26 cells or CT26-TβRII-dn cells. 8 hours after transfection TGFβ1 was added for 24 hours, while the controls were left without TGFβ. Then cell lysates were prepared and the luciferase activity was measured in a Berthold Clinilumat as described by Wrana et al., 1992. In order to determine the transfection efficiency all the cells were cotransfected with an CMV-β-Gal reporter gene construct and the luciferase activities obtained were standardised by the β-Gal fluorescence intensity and by the protein concentration of the extract (Bradford).
CT26-control cells (CT26 controls) and 5 clones of CT26−TβRII-dn cells (CT26TβRII-dn 1-5) were transfected with a PAI-1 promoter-reporter gene construct (3TP-lux), the cells were stimulated with TGFβ (+TGFβ) or left unstimulated (−TGFβ) and the luciferase activity was measured in cell extracts. […]

EpRas cells [4] = test: EF conversion of EpRas cells in collagen type I gels; type: cell-based, mouse
Experimental: (§1) Semiconfluent cultures of the cells to be analysed were trypsinised and adjusted to a final concentration of 4×10^4 cells per ml with ice-cold growth medium. Equal volumes of the cell suspension and an acidified solution of rat's tail collagen type 1 (Sigma) were mixed at 4° C., applied to 35 mm tissue culture dishes and incubated for 30 min at 37° C., in order to allow the solution to set to a gel. To allow the cells to form organotypical structures, the collagen gels were covered with a serum-free medium (MEGM; Promocel) containing bovine pituary extract (BPE), recombinant epidermal growth factor (EGF), hydrocortisone and insulin (in the concentrations recommended by the manufacturer). Where stated, 5 or 10% FCS or 5 ng/ml recombinant TGFβ1 (literature) were added. The medium covering the collagen gels was changed every two days. In order to neutralise the TGFβ1 produced by the cells or cell structures in the collagen gels a monoclonal antibody against TGFβ1 (Genzyme) or control antibody is used in concentrations of up to 50 μg/ml.
In order to identify the mechanism underlying the EF conversion, an experimental system was used with which EF conversion can be induced in vitro under defined and physiologically relevant conditions. For this purpose normal EpH4 cells or Ras-transformed subclones of these cells (Ep-Ras clones) were grown in reconstituted collagen type I gels, using serum-free medium. These conditions made it possible to add defined polypeptide growth factors and hormones which are known to be involved in the modulation of the epithelial phenotype. In gels of this kind, normal EpH4 cells developed into organ-like gland channels (tubuli) which frequently terminated in club-shaped hollow swellings. These structures looked very similar to the end buds of the developing mammary gland which are formed by primary breast epithelial cells both in collagen gels and also in vivo (FIG. 3A). These structures could be induced to produce milk proteins efficiently by the addition of lactogenic hormones. […]

EpRas cells [5] = test: TGFβ1-charged Slow Release Pellets coinjected with EpRas cells in mice; type: in vivo, mouse; conditions: 4 days after subcutaneous injection
Experimental: (§2) In order to expose Ras-transformed breast epithelial cells to activated TGFβ1 very early in tumour development, TGFβ1 -charged Slow Release Elvax Pellets and either EpRas-epithelial cells or normal EpH4H cells were coinjected subcutaneously in mice. For control purposes pellets, charged only with BSA, were coinjected. The pellets were prepared and charged according to the manufacturer's instructions.
FIGS. 8E, F: Epithelial EpRas cells were injected subcutaneously into nude mice without (E) or together with 3-Elvax Slow Release Pellets charged with recombinant (active) TGFβ1 (F). Frozen sections obtained from 4 day old tumours were double-stained with antibodies against cytokeratin (red) and vimentin (green). What is noticeable is the dramatic migration of cells into the surrounding tissue induced in the vicinity of the TGFβ1 -releasing pellets (white circle).

EpH4 cells [6] = test: In vitro morphogenesis and apoptosis of normal EpH4 cells in collagen gels; type: cell-based, mouse
Experimental: as §1
Since the TGFβ-super-family of polypeptide factors is involved primarily in morphogenetic processes during embryo development, the role of TGFβ1 in normal mammary gland development was also examined within the scope of the present invention. For this purpose normal breast epithelial cells of the cell line EpH4 were sown in serum-free collagen gels. Unlike in the experiments in Example 3, the serum needed during sowing for the collagen gel to set and washed out one day later was specially selected for a low content of TGFβ1. […] Thus, these structures bore some resemblance to the end buds of the developing mammary gland.

EpH4 cells [7] = test: TGFβ1-charged Slow Release Pellets coinjected with EpH4 cells in mice; conditions: mouse, in vivo
Experimental: as §2

Substance: TGFβ1: Transforming Growth Factor β1, recombinant polypeptide factor added to cells or charged in Slow Release Elvax Pellets
- TGFβ1-mRNA produced by fibroblastoid cells induced by TGFβ1 (EpRas cells [1]): produced quantities of TGFβ1-mRNA which were comparable with those of control fibroblasts
- invasivity of EpRas cells converted by TGFβ1 treatment (EpRas cells [2]): capable of migrating efficiently into the heart fragments
- reporter gene transcription in CT26 control cells [3]: activates the reporter gene transcription to levels which are attained in the positive controls
- apoptosis / EFC of Ha-Ras-containing cells (EpRas cells [4]; TGFβ1 5 ng/ml): not induced into apoptosis and undergo EFC without exception
- growth and phenotype of EpRas cells in collagen gel (EpRas cells [4]; TGFβ1 on its own, 5 ng/ml, serum-free collagen gel): causes EpRas cells to grow into invasive strings of cells similar to those induced by FCS
- effect among growth factors added to EpRas cells in collagen gels (EpRas cells [4]; compared with heregulin, scatter factor/HGF, acidic and basic FGF, PDGF): the only factor which showed striking and long-lasting effects on EpRas cells
- phenotype and migration of EpRas cells close to a TGFβ1 pellet (EpRas cells [5]): converted into irregularly shaped cells just 4 days after the injection and exhibited extensive migration into the surrounding host tissue
- TGFβ1 concentration causing growth stop and apoptosis of normal epithelial cells (EpH4 cells [6]; EpH4 cells in collagen gels): > 0.25 ng/mL
- structures formed by EpH4 cells after transient TGFβ1 (EpH4 cells [6]; TGFβ1 0.1 ng/ml until structures had formed, then washed out): formed well-shaped tubular structures with typical lumina
- structures formed by EpH4 cells (EpH4 cells [6]; TGFβ1 0.1 ng/ml, serum selected for low TGFβ1 content): able to proliferate and form atypical structures which generally lacked lumina
- induction of EF conversion in non-tumorigenic control cells (EpH4 cells [6]; collagen gels): not able to induce EF conversion
- phenotype of EpH4 cells close to TGFβ1 pellets (EpH4 cells [7]): could not noticeably influence the phenotype of these non-tumorigenic cells
